Reference: patent publication US6121287A, “Quinoline derivatives” (Active Biotech AB, priority 1999, dated 2000)
Like-named read-outs stand apart in the source and are kept apart here.

Assays:
[1] = test system: acute experimental autoimmune encephalomyelitis (aEAE); experiment: inhibition of acute experimental autoimmune encephalomyelitis (aEAE) in mice; format: in vivo, mice (STUN female); details: for % aEAE Inhibition: percent inhibition of clinical scores vs saline treated controls
[2] = test system: foetuses of pregnant female rats; experiment: Teratogenic Effects in the Rat; format: in vivo; details: 6 mg/kg/day (dose given for the N-methyl-N-phenyl compound), subcutaneous, day 8 to 14 of pregnancy
Source text: Teratogenic Effects in the Rat
The compounds were administrated subcutaneously to female rats during pregnancy, i.e., day 8 to 14 of pregnancy. The rats were caesarean sectioned and necropsied on day 20 after fertilization. The foetuses were examined for external and internal abnormalities.

[3] = test system: foetuses of pregnant female rats; details: rat; background statement; cited from earlier work
[4] = test system: beagle dogs; details: different breeds of beagle dogs; cited from earlier work
[5] = test system: multiple sclerosis; details: cited from earlier work
[6] = test system: cell-mediated immunity; details: cited from earlier work

SMILES | % aEAE Inhibition ([1]; 0.04 mg/kg p.o.) [%] | % aEAE Inhibition ([1]; 0.2 mg/kg p.o.) [%] | teratogenic effect [2] | % aEAE Inhibition ([1]; 1 mg/kg p.o.) [%] | further results
CCN(C(=O)c1c(O)c2c(SC)cccc2n(C)c1=O)c1ccccc1 [Compound A, N-ethyl-N-phenyl-1,2-dihydro-4-hydroxy-5-thiomethyl-1-methyl-2-oxo-quinoline-3-carboxamide] | 28 | 49 | non-teratogenic |  | 
CSc1cccc2c1c(O)c(C(=O)N(C)c1ccc(F)cc1F)c(=O)n2C [Compound B, N-methyl-N-(2,4-difluoro-phenyl)-1,2-dihydro-4-hydroxy-5-thiomethyl-1-methyl-2-oxo-quinoline-3-carboxamide] |  | 67 | non-teratogenic | 97 | 
CCN(C(=O)c1c(O)c2cc(SC)ccc2n(C)c1=O)c1ccccc1 [Compound C, N-ethyl-N-phenyl-1,2-dihydro-4-hydroxy-6-thiomethyl-1-methyl-2-oxo-quinoline3-carboxamide] | 0 | 23 |  |  | 
CSc1ccc2c(c1)c(O)c(C(=O)N(C)c1ccc(F)cc1F)c(=O)n2C [Compound D, N-methyl-N-(2,4difluoro-phenyl)-l,2-dihydro-4-hydroxy-6-thiomethyl-1-methyl-2-oxo-quinoline-3-carboxamide] |  | 0 |  | 66 | 
CSc1cccc2c1c(O)c(C(=O)N(C)c1ccccc1)c(=O)n2C [N-methyl-N-phenyl-1,2-dihydro-4-hydroxy-5-thiomethyl-1-methyl-2-oxo-quinoline-3-carboxamide] |  |  | teratogenic |  | 
CN(C(=O)c1c(O)c2ccccc2n(C)c1=O)c1ccccc1 [Roquinimex, roquinimex] |  |  |  |  | inhibition of aEAE (treatment control) ([1]; at ≥5 mg/kg, mice): more than 50%; teratogenic effect [3]: teratogenic in the rat; Beagle Pain Syndrome (BPS) induction [4]: induce the Beagle Pain Syndrome (BPS); clinical efficacy in conditions associated with MS ([5]; clinical trials comparing roquinimex to placebo): hold promise in the treatment of conditions associated with MS; dose-limiting side effects in man ([5]; man): induces dose-limiting side effects in man, e.g., a flu-like syndrome; immunomodulatory activities [6]: multiple immunomodulatory activities not accompanied with general immunosuppression
